From patent US20260193226A1, “MICROBIOCIDAL TETRAHYDROISOQUINOLINE DERIVATIVES” (SYNGENTA CROP PROTECTION AG, priority 2022, published 2026)

Experiments:
[1] = tested on: Mycosphaerella graminicola (Septoria tritici); assay: Mycosphaerella graminicola (Septoria tritici) / liquid culture (Septoria blotch); assay type: cell-based; details: Zymoseptoria tritici, compared to untreated control
Experimental: (§1) Example B15: Mycosphaerella graminicola (Septoria tritici)/Liquid Culture (Septoria Blotch) Conidia of the fungus from cryogenic storage are directly mixed into nutrient broth (PDB potato dextrose broth). After placing a (DMSO) solution of test compound into a microtiter plate (96-well format), the nutrient broth containing the fungal spores is added. The test plates are incubated at 24° C. and the inhibition of growth is determined photometrically 4 to 5 days after application.

[2] = tested on: Mycosphaerella arachidis (Cercospora arachidicola); assay: Mycosphaerella arachidis (Cercospora arachidicola) / liquid culture (early leaf spot); assay type: cell-based; details: compared to untreated control
Experimental: as §1, with “B9:” for “B15:”, “arachidis (Cercospora arachidicola)/Liquid” for “graminicola (Septoria tritici)/Liquid”, “(Early Leaf Spot)” for “(Septoria Blotch)”

## Cc1c([C@H]2CN(C(=O)CCCC=C(F)F)[C@@H](C)c3ccccc32)cnn1C (racemic) [Compound P-26, 6,6-difluoro-1-[rac-(1S,4S)-4-(1,5-dimethylpyrazol-4-yl)-1-methyl-3,4-dihydro-1H-isoquinolin-2-yl]hex-5-en-1-one]
[1]
  inhibition of growth at 20 ppm: ≥ 80%
[2]
  inhibition of growth at 20 ppm: ≥ 80%

## CCCCCCC(=O)N1Cc2ccccc2C(C)(c2cnn(C)c2)C1 (stereo not drawn) [Compound P-8, 1-[4-methyl-4-(1-methylpyrazol-4-yl)-1,3-dihydroisoquinolin-2-yl]heptan-1-one]
[1]
  inhibition of growth at 20 ppm: ≥ 80%

## Cc1c(C2CN(C(=O)NCCC3CCCCCC3)Cc3ccccc32)cnn1C (stereo not drawn) [Compound P-32, N-(2-cycloheptylethyl)-4-(1,5-dimethylpyrazol-4-yl)-3,4-dihydro-1H-isoquinoline-2-carboxamide]
[1]
  inhibition of growth at 20 ppm: ≥ 80%

## Cc1c(C2CN(C(=O)NCCCC3CCCC3)Cc3ccccc32)cnn1C (stereo not drawn) [Compound P-38, N-(3-cyclopentylpropyl)-4-(1,5-dimethylpyrazol-4-yl)-3,4-dihydro-1H-isoquinoline-2-carboxamide]
[1]
  inhibition of growth at 20 ppm: ≥ 80%

## Cn1cc(C2CN(C(=O)CCc3ccc(F)cc3F)Cc3ccccc32)cn1 (stereo not drawn) [Compound P-1, 3-(2,4-difluorophenyl)-1-[4-(1-methylpyrazol-4-yl)-3,4-dihydro-1H-isoquinolin-2-yl]propan-1-one]
[1]
  inhibition of growth at 20 ppm: ≥ 80%
[2]
  inhibition of growth at 20 ppm: ≥ 80%

## Cc1c(C2CN(C(=O)Nc3cc(C(C)(C)C)on3)Cc3ccccc32)cnn1C (stereo not drawn) [Compound P-34, N-(5-tert-butylisoxazol-3-yl)-4-(1,5-dimethylpyrazol-4-yl)-3,4-dihydro-1H-isoquinoline-2-carboxamide]
[1]
  inhibition of growth at 20 ppm: ≥ 80%

## Cc1c([C@H]2CN(C(=O)NCCCC3CC3)[C@@H](C)c3ccccc32)cnn1C [Compound P-51, (1S,4S)-N-(3-cyclopropylpropyl)-4-(1,5-dimethylpyrazol-4-yl)-1-methyl-3,4-dihydro-1H-isoquinoline-2-carboxamide]
[1]
  inhibition of growth at 20 ppm: ≥ 80%
[2]
  inhibition of growth at 20 ppm: ≥ 80%

## Cc1c(C2CN(C(=O)COCc3ccc(F)cc3F)Cc3ccccc32)cnn1C (stereo not drawn) [Compound P-15, 2-[(2,4-difluorophenyl)methoxy]-1-[4-(1,5-dimethylpyrazol-4-yl)-3,4-dihydro-1H-isoquinolin-2-yl]ethanone]
[1]
  inhibition of growth at 20 ppm: ≥ 80%

## CCCCCC(=O)N1Cc2ccccc2C(c2cnn(C)c2C)C1 (stereo not drawn) [Compound P-5, 1-[4-(1,5-dimethylpyrazol-4-yl)-3,4-dihydro-1H-isoquinolin-2-yl]hexan-1-one]
[1]
  inhibition of growth at 20 ppm: ≥ 80%

## Cc1c(C2CN(C(=O)Nc3nc4ccccc4s3)Cc3ccccc32)cnn1C (stereo not drawn) [Compound P-33, N-(1,3-benzothiazol-2-yl)-4-(1,5-dimethylpyrazol-4-yl)-3,4-dihydro-1H-isoquinoline-2-carboxamide]
[1]
  inhibition of growth at 20 ppm: ≥ 80%

## Cc1c(C2CN(C(=O)CCCCC3CC3)Cc3ccccc32)cnn1C (stereo not drawn) [Compound P-48, 5-cyclopropyl-1-[4-(1,5-dimethylpyrazol-4-yl)-3,4-dihydro-1H-isoquinolin-2-yl]pentan-1-one]
[1]
  inhibition of growth at 20 ppm: ≥ 80%

## Cc1c(C2CN(C(=O)CCCC=C(F)F)Cc3ccccc32)cnn1C (stereo not drawn) [Compound P-24, 1-[4-(1,5-dimethylpyrazol-4-yl)-3,4-dihydro-1H-isoquinolin-2-yl]-6,6-difluoro-hex-5-en-1-one]
[1]
  inhibition of growth at 20 ppm: ≥ 80%

## Cc1c(C2CN(C(=O)COc3ccc(F)cc3F)Cc3ccccc32)cnn1C (stereo not drawn) [Compound P-13, 2-(2,4-difluorophenoxy)-1-[4-(1,5-dimethylpyrazol-4-yl)-3,4-dihydro-1H-isoquinolin-2-yl]ethanone]
[1]
  inhibition of growth at 20 ppm: ≥ 80%

## Cc1c(C2CN(C(=O)Nc3ccc(Cl)cc3)Cc3ccccc32)cnn1C (stereo not drawn) [Compound P-40, N-(4-chlorophenyl)-4-(1,5-dimethylpyrazol-4-yl)-3,4-dihydro-1H-isoquinoline-2-carboxamide]
[1]
  inhibition of growth at 20 ppm: ≥ 80%

## Cc1c(C2CN(C(=O)NCCC(C)(C)C3CC3)Cc3ccccc32)cnn1C (stereo not drawn) [Compound P-39, N-(3-cyclopropyl-3-methyl-butyl)-4-(1,5-dimethylpyrazol-4-yl)-3,4-dihydro-1H-isoquinoline-2-carboxamide]
[1]
  inhibition of growth at 20 ppm: ≥ 80%

## Cc1c([C@H]2CN(C(=O)NCCCCC(F)F)[C@@H](C)c3ccccc32)cnn1C [Compound P-53, (1S,4S)-N-(5,5-difluoropentyl)-4-(1,5-dimethylpyrazol-4-yl)-1-methyl-3,4-dihydro-1H-isoquinoline-2-carboxamide]
[1]
  inhibition of growth at 20 ppm: ≥ 80%

## Cc1c(C2CN(C(=O)CCCC(C)C)Cc3ccccc32)cnn1C (stereo not drawn) [Compound P-19, 1-[4-(1,5-dimethylpyrazol-4-yl)-3,4-dihydro-1H-isoquinolin-2-yl]-5-methyl-hexan-1-one]
[1]
  inhibition of growth at 20 ppm: ≥ 80%
[2]
  inhibition of growth at 20 ppm: ≥ 80%

## C#CCCCCCC(=O)N1Cc2ccccc2C(c2cnn(C)c2C)C1 (stereo not drawn) [Compound P-21, 1-[4-(1,5-dimethylpyrazol-4-yl)-3,4-dihydro-1H-isoquinolin-2-yl]oct-7-yn-1-one]
[1]
  inhibition of growth at 20 ppm: ≥ 80%

## CCCCCCCCCC(=O)N1Cc2ccccc2C(c2cnn(C)c2C)C1 (stereo not drawn) [Compound P-9, 1-[4-(1,5-dimethylpyrazol-4-yl)-3,4-dihydro-1H-isoquinolin-2-yl]decan-1-one]
[1]
  inhibition of growth at 20 ppm: ≥ 80%

## Cc1c(C2CN(C(=O)CCCCC3CCSS3)Cc3ccccc32)cnn1C (stereo not drawn) [Compound P-18, 1-[4-(1,5-dimethylpyrazol-4-yl)-3,4-dihydro-1H-isoquinolin-2-yl]-5-(dithiolan-3-yl)pentan-1-one]
[1]
  inhibition of growth at 20 ppm: ≥ 80%

## Cc1c(C2CN(C(=O)OCCC3CC3)Cc3ccccc32)cnn1C (stereo not drawn) [Compound P-3, 2-cyclopropylethyl 4-(1,5-dimethylpyrazol-4-yl)-3,4-dihydro-1H-isoquinoline-2-carboxylate]
[1]
  inhibition of growth at 20 ppm: ≥ 80%

## Cc1c(C2CN(C(=O)OCCc3ccc(F)cc3)Cc3ccccc32)cnn1C (stereo not drawn) [Compound P-25, 2-(4-fluorophenyl)ethyl 4-(1,5-dimethylpyrazol-4-yl)-3,4-dihydro-1H-isoquinoline-2-carboxylate]
[1]
  inhibition of growth at 20 ppm: ≥ 80%

## Cc1c(C2CN(C(=O)OCCCCC(F)F)Cc3ccccc32)cnn1C (stereo not drawn) [Compound P-54, 5,5-difluoropentyl 4-(1,5-dimethylpyrazol-4-yl)-3,4-dihydro-1H-isoquinoline-2-carboxylate]
[1]
  inhibition of growth at 20 ppm: ≥ 80%
[2]
  inhibition of growth at 20 ppm: ≥ 80%

## Cc1c([C@H]2CN(C(=O)NCc3ccc(F)cc3F)[C@@H](C)c3ccccc32)cnn1C (racemic) [Compound P-44, rac-(1S,4S)-N-[(2,4-difluorophenyl)methyl]-4-(1,5-dimethylpyrazol-4-yl)-1-methyl-3,4-dihydro-1H-isoquinoline-2-carboxamide]
[1]
  inhibition of growth at 20 ppm: ≥ 80%

## Cn1cc(C2(C)CN(C(=O)OCCC3CCCCC3)Cc3ccccc32)cn1 (stereo not drawn) [Compound P-12, 2-cyclohexylethyl 4-methyl-4-(1-methylpyrazol-4-yl)-1,3-dihydroisoquinoline-2-carboxylate]
[1]
  inhibition of growth at 20 ppm: ≥ 80%

## Cc1c(C2CN(C(=O)CCc3ccc(Br)cc3)Cc3ccccc32)cnn1C (stereo not drawn) [Compound P-20, 3-(4-bromophenyl)-1-[4-(1,5-dimethylpyrazol-4-yl)-3,4-dihydro-1H-isoquinolin-2-yl]propan-1-one]
[1]
  inhibition of growth at 20 ppm: ≥ 80%

## Cc1c(C2CN(C(=O)CSc3ccc(F)cc3F)Cc3ccccc32)cnn1C (stereo not drawn) [Compound P-14, 2-(2,4-difluorophenyl)sulfanyl-1-[4-(1,5-dimethylpyrazol-4-yl)-3,4-dihydro-1H-isoquinolin-2-yl]ethanone]
[1]
  inhibition of growth at 20 ppm: ≥ 80%
[2]
  inhibition of growth at 20 ppm: ≥ 80%

## Cc1c(C2CN(C(=O)Nc3ccc(C4CC4)cc3)Cc3ccccc32)cnn1C (stereo not drawn) [Compound P-41, N-(4-cyclopropylphenyl)-4-(1,5-dimethylpyrazol-4-yl)-3,4-dihydro-1H-isoquinoline-2-carboxamide]
[1]
  inhibition of growth at 20 ppm: ≥ 80%

## Cc1c(C2CN(C(=O)CCc3ccc(Cl)c(Cl)c3)Cc3ccccc32)cnn1C (stereo not drawn) [Compound P-23, 3-(3,4-dichlorophenyl)-1-[4-(1,5-dimethylpyrazol-4-yl)-3,4-dihydro-1H-isoquinolin-2-yl]propan-1-one]
[1]
  inhibition of growth at 20 ppm: ≥ 80%

## Cc1c(C2CN(C(=O)OCCCCCF)Cc3ccccc32)cnn1C (stereo not drawn) [Compound P-55, 5-fluoropentyl 4-(1,5-dimethylpyrazol-4-yl)-3,4-dihydro-1H-isoquinoline-2-carboxylate]
[1]
  inhibition of growth at 20 ppm: ≥ 80%
[2]
  inhibition of growth at 20 ppm: ≥ 80%

## Cc1c([C@H]2CN(C(=O)NCCCCCF)[C@@H](C)c3ccccc32)cnn1C [Compound P-52, (1S,4S)-4-(1,5-dimethylpyrazol-4-yl)-N-(5-fluoropentyl)-1-methyl-3,4-dihydro-1H-isoquinoline-2-carboxamide]
[1]
  inhibition of growth at 20 ppm: ≥ 80%

## Cc1nc(NC(=O)N2Cc3ccccc3C(c3cnn(C)c3C)C2)ccc1Cl (stereo not drawn) [Compound P-35, N-(5-chloro-6-methyl-2-pyridyl)-4-(1,5-dimethylpyrazol-4-yl)-3,4-dihydro-1H-isoquinoline-2-carboxamide]
[1]
  inhibition of growth at 20 ppm: ≥ 80%
